Source: EP0090603A2, “Antibacterial compounds” (BEECHAM GROUP PLC, priority 1982, dated 1983)

Key:
[1] = test system: M. bovis NCTC 10131; experiment: microbe, parasite or virus in culture; assay type: cell-based; conditions: Friis broth solidified with 0.9% agarose, 10^3 to 10^5 C.F.U., 6 days at 37°C
[2] = test system: Staph. aureus 152 (pen. sens); experiment: MIC against Veterinary Bacteria, in vitro agar dilution; conditions: […], 10^4 organisms, 18 hours at 37°C
Protocol: (§1) The activity of the compounds of the Examples against various veterinarily important bacteria, was assayed in vitro using two-fold serial dilutions in Diagnostic Sensitivity Test Agar inoculated with 10^4 organisms.

[3] = test system: Past. haemolytica PA5; experiment: as above; conditions: […], 10^4 organisms, 18 hours at 37°C
Protocol: as §1

[4] = test system: Past. multocida PA1; experiment: as above; conditions: […], 10^4 organisms, 18 hours at 37°C
Protocol: as §1

[5] = test system: M. hyorhinis ATCC 25021; experiment: MIC against Mycoplasma, in vitro agar dilution; assay type: cell-based; conditions: Friis broth solidified with 0.9% agarose, 10^3 to 10^5 C.F.U., 6 days at 37°C
[6] = test system: Past. multocida PA2; experiment: MIC against Veterinary Bacteria, in vitro agar dilution; conditions: […], 10^4 organisms, 18 hours at 37°C
Protocol: as §1

[7] = test system: Staph. aureus B4 (pen. resistant); experiment: as above; conditions: […], 10^4 organisms, 18 hours at 37°C
Protocol: as §1

[8] = test system: M. suipneumoniae HK(2); experiment: MIC against Mycoplasma, in vitro agar dilution; assay type: cell-based; conditions: Friis broth solidified with 0.9% agarose, 10^3 to 10^5 C.F.U., 6 days at 37°C
[9] = test system: S. dublin S7; experiment: MIC against Veterinary Bacteria, in vitro agar dilution; conditions: […], 10^4 organisms, 18 hours at 37°C
Protocol: as §1

[10] = test system: M. suipneumoniae ATCC 25095; experiment: MIC against Mycoplasma, in vitro agar dilution; assay type: cell-based; conditions: Friis broth solidified with 0.9% agarose, 10^3 to 10^5 C.F.U., 6 days at 37°C
[11] = test system: M. hyosynoviae ATCC 25591; experiment: MIC against Mycoplasma, in vitro agar dilution; assay type: cell-based; conditions: Friis broth solidified with 0.9% agarose, 10^3 to 10^5 C.F.U., 6 days at 37°C
[12] = test system: Corynebacterium pyogenes CY1; experiment: MIC against Veterinary Bacteria, in vitro agar dilution; conditions: 10^4 organisms, 18 hours at 37°C
Protocol: as §1

[13] = test system: M. suipneumoniae LABER; experiment: MIC against Mycoplasma, in vitro agar dilution; assay type: cell-based; conditions: Friis broth solidified with 0.9% agarose, 10^3 to 10^5 C.F.U., 6 days at 37°C
[14] = test system: M. suipneumoniae Str. 11; experiment: MIC against Mycoplasma, in vitro agar dilution; assay type: cell-based; conditions: Friis broth solidified with 0.9% agarose, 10^3 to 10^5 C.F.U., 6 days at 37°C
[15] = test system: M. suipneumoniae NCTC 10110; experiment: MIC against Mycoplasma, in vitro agar dilution; assay type: cell-based; conditions: Friis broth solidified with 0.9% agarose, 10^3 to 10^5 C.F.U., 6 days at 37°C
[16] = test system: E. coli E1; experiment: MIC against Veterinary Bacteria, in vitro agar dilution; conditions: […], 10^4 organisms, 18 hours at 37°C
Protocol: as §1

[17] = test system: M. hyorhinis ATCC 23234; experiment: MIC against Mycoplasma, in vitro agar dilution; assay type: cell-based; conditions: Friis broth solidified with 0.9% agarose, 10^3 to 10^5 C.F.U., 6 days at 37°C
[18] = test system: M. gallisepticum S6; experiment: MIC against Mycoplasma, in vitro agar dilution; assay type: cell-based; conditions: Friis broth solidified with 0.9% agarose, 10^3 to 10^5 C.F.U., 6 days at 37°C
[19] = test system: Bord. bronchiseptica B09; experiment: MIC against Veterinary Bacteria, in vitro agar dilution; conditions: […], 10^4 organisms, 18 hours at 37°C
Protocol: as §1

[20] = test system: M. suipneumoniae PW/C/210; experiment: MIC against Mycoplasma, in vitro agar dilution; assay type: cell-based; conditions: Friis broth solidified with 0.9% agarose, 10^3 to 10^5 C.F.U., 6 days at 37°C
[21] = test system: M. suipneumoniae MS 16; experiment: MIC against Mycoplasma, in vitro agar dilution; assay type: cell-based; conditions: Friis broth solidified with 0.9% agarose, 10^3 to 10^5 C.F.U., 6 days at 37°C
[22] = test system: Strep. dysgalactiae SPD1; experiment: MIC against Veterinary Bacteria, in vitro agar dilution; conditions: […], 10^4 organisms, 18 hours at 37°C
Protocol: as §1

[23] = test system: M. suipneumoniae J2206/183^b; experiment: MIC against Mycoplasma, in vitro agar dilution; assay type: cell-based; conditions: Friis broth solidified with 0.9% agarose, 10^3 to 10^5 C.F.U., 6 days at 37°C
[24] = test system: E. coli NCTC 10418; experiment: MIC against Veterinary Bacteria, in vitro agar dilution; conditions: […], 10^4 organisms, 18 hours at 37°C
Protocol: as §1

[25] = test system: M. suipneumoniae JF 435; experiment: MIC against Mycoplasma, in vitro agar dilution; assay type: cell-based; conditions: Friis broth solidified with 0.9% agarose, 10^3 to 10^5 C.F.U., 6 days at 37°C
[26] = test system: Staph. aureus Oxford; experiment: MIC against Veterinary Bacteria, in vitro agar dilution; conditions: […], 10^4 organisms, 18 hours at 37°C
Protocol: as §1

[27] = test system: Bord. bronchiseptica B08; experiment: as above; conditions: […], 10^4 organisms, 18 hours at 37°C
Protocol: as §1

[28] = test system: M. bovigenitalium ATCC 14173; experiment: MIC against Mycoplasma, in vitro agar dilution; assay type: cell-based; conditions: Friis broth solidified with 0.9% agarose, 10^3 to 10^5 C.F.U., 6 days at 37°C
[29] = test system: S. typhimurium S18; experiment: MIC against Veterinary Bacteria, in vitro agar dilution; conditions: […], 10^4 organisms, 18 hours at 37°C
Protocol: as §1

[30] = test system: M. suipneumoniae UCD 1; experiment: MIC against Mycoplasma, in vitro agar dilution; assay type: cell-based; conditions: Friis broth solidified with 0.9% agarose, 10^3 to 10^5 C.F.U., 6 days at 37°C
[31] = test system: M. suipneumoniae TAM 6N; experiment: MIC against Mycoplasma, in vitro agar dilution; assay type: cell-based; conditions: Friis broth solidified with 0.9% agarose, 10^3 to 10^5 C.F.U., 6 days at 37°C
[32] = test system: Strep. uberis SPU1; experiment: MIC against Veterinary Bacteria, in vitro agar dilution; conditions: […], 10^4 organisms, 18 hours at 37°C
Protocol: as §1

[33] = test system: M. suipneumoniae NB12; experiment: MIC against Mycoplasma, in vitro agar dilution; assay type: cell-based; conditions: Friis broth solidified with 0.9% agarose, 10^3 to 10^5 C.F.U., 6 days at 37°C
[34] = test system: M. dispar NCTC 10125; experiment: MIC against Mycoplasma, in vitro agar dilution; assay type: cell-based; conditions: Friis broth solidified with 0.9% agarose, 10^3 to 10^5 C.F.U., 6 days at 37°C
[35] = test system: Erysipelothrix rhusiopathiae NCTC 8163; experiment: MIC against Veterinary Bacteria, in vitro agar dilution; conditions: […], 10^4 organisms, 18 hours at 37°C
Protocol: as §1

[36] = test system: Strep. suis (group D) SPS11; experiment: as above; conditions: […], 10^4 organisms, 18 hours at 37°C
Protocol: as §1

[37] = test system: M. pneumoniae ATCC 15492; experiment: MIC against Mycoplasma, in vitro agar dilution; assay type: cell-based; conditions: Friis broth solidified with 0.9% agarose, 10^3 to 10^5 C.F.U., 6 days at 37°C

Methyl 9-[4-(5S-(2S,3S-epoxy-5S-hydroxy-4S-methylhexyl-3R,4R-dihydroxytetrahydropyran-2S-yl)-2,3-dimethylbut-2(E)-enoyloxy]nonanoate [Example 6]
MIC's against M. bovis NCTC 10131 [1]: 0.1 µg/mL | MIC's against Staph. aureus 152 (pen. sens) [2]: 2.5 µg/mL | MIC's against Past. haemolytica PA5 [3]: 80 µg/mL | MIC's against Past. multocida PA1 [4]: 5.0 µg/mL | MIC's against M. hyorhinis ATCC 25021 [5]: 1.0 µg/mL | MIC's against Past. multocida PA2 [6]: 5.0 µg/mL | MIC's against Staph. aureus B4 (pen. resistant) [7]: 1.25 µg/mL | MIC's against M. suipneumoniae HK(2) [8]: 10.0 µg/mL | MIC's against S. dublin S7 [9]: >80 µg/mL | MIC's against M. suipneumoniae ATCC 25095 [10]: 2.5 µg/mL | MIC's against M. hyosynoviae ATCC 25591 [11]: 1.0 µg/mL | MIC's against Corynebacterium pyogenes CY1 [12]: >80 µg/mL | MIC's against M. suipneumoniae LABER [13]: 2.5 µg/mL | MIC's against M. suipneumoniae Str. 11 [14]: 2.5 µg/mL | MIC's against M. suipneumoniae NCTC 10110 [15]: 10.0 µg/mL | MIC's against E. coli E1 [16]: >80 µg/mL | MIC's against M. hyorhinis ATCC 23234 [17]: 1.0 µg/mL | MIC's against M. gallisepticum S6 [18]: >10.0 µg/mL | MIC's against Bord. bronchiseptica B09 [19]: 5.0 µg/mL | MIC's against M. suipneumoniae PW/C/210 [20]: 2.5 µg/mL | MIC's against M. suipneumoniae MS 16 [21]: 2.5 µg/mL | MIC's against Strep. dysgalactiae SPD1 [22]: 0.625 µg/mL | MIC's against M. suipneumoniae J2206/183^b [23]: 10.0 µg/mL | MIC's against E. coli NCTC 10418 [24]: >80 µg/mL | MIC's against M. suipneumoniae JF 435 [25]: 5.0 µg/mL | MIC's against Staph. aureus Oxford [26]: 0.625 µg/mL | MIC's against Bord. bronchiseptica B08 [27]: 40 µg/mL | MIC's against M. bovigenitalium ATCC 14173 [28]: 0.25 µg/mL | MIC's against S. typhimurium S18 [29]: >80 µg/mL | MIC's against M. suipneumoniae UCD 1 [30]: 10.0 µg/mL | MIC's against M. suipneumoniae TAM 6N [31]: 10.0 µg/mL | MIC's against Strep. uberis SPU1 [32]: 0.312 µg/mL | MIC's against M. suipneumoniae NB12 [33]: 2.5 µg/mL | MIC's against M. dispar NCTC 10125 [34]: 2.5 µg/mL | MIC's against Erysipelothrix rhusiopathiae NCTC 8163 [35]: >80 µg/mL | MIC's against Strep. suis (group D) SPS11 [36]: 10 µg/mL | MIC's against M. pneumoniae ATCC 15492 [37]: 10.0 µg/mL
